Patent US10792365B2, “Peptide derivative and use thereof” (Toray Industries, Inc., priority 2016, dated 2020)
pEC50: −log10 of the molar value. Counter-ions that a name gives are not always drawn.

Assays:
L1210 cells = assay: In vitro cytotoxicity of the peptide derivative (I), MTS method, L1210 cells; assay type: cell-based, mouse; conditions: Mus musculus
Text: (§1) The cytotoxicity of the peptide derivative (I) or a pharmaceutically acceptable salt thereof, or the conjugate including the peptide derivative (I) or a pharmaceutically acceptable salt thereof can be evaluated with an in vitro study. Examples of the in vitro studies include the trypan blue dye exclusion method, the lactate dehydrogenase (LDH) activity assay, [^3H]thymidine incorporation method, or propidium iodide nuclear stain that each measures the number of dead cells or surviving cells post treated with the compound; a method using dyes such as MTT, MTS, and WST (Current Protocol in Toxicology, (2000), 2.6.1-2.6.27); or a method in which the amount of ATP is measured using CellTiter-Glow (Promega Corporation) and the like, and preferably include the method in which the number of surviving cells post treated with the compound is measured by using the MTS method to determine values of the cytotoxicity at that time from 50% effect-concentration (EC50). Furthermore, in the evaluation of the cytotoxicity of the conjugate including the peptide derivative (I) or a pharmaceutically acceptable salt thereof, preferred method is the one that for a certain time, cells are treated with a medium containing the compound, the cells are then transferred to a medium not containing the compound, and the number of surviving cells are measured after cultivation for additional certain time (Bioconjugate Chemistry., 2014; 25: pp. 560-568). For the in vitro studies, human ovarian cancer cell SKOV-3 cells, human alveolar basement epithelial gland cancer cell A549 cells, mouse lymphocytic leukocyte L1210 cells and the like are used.

A549 cells = assay: In vitro cytotoxicity of the peptide derivative (I), MTS method, A549 cells; assay type: cell-based, human; conditions: Homo sapiens
Text: as §1

[1] = Parallel Artificial Membrane Permeation Assay (PAMPA), Pre-coated PAMPA Plate System (Corning)
Experimental: Reference Example 14, the Compound of Reference Example 16, and the Compound of Comparative Example was Evaluated by Using Pre-Coated PAMPA PlateSystem (Corning)
A frozen-stored, Pre-coated PAMPA Plate System was allowed to stand at room temperature for thirty minutes or more. Subsequently, 320 μL of the standard solution was added to a Donor side plate of Pre-coated PAMPA Plate System, and 200 μL of the PBS containing 20% of methanol was added to an Acceptor side plate. Both of the plates were set for the system, and the plates allowed to stand at room temperature for five hours. The reaction liquid in each well of the Donor side and Acceptor side plates was subjected to LC/MS analysis (hereinafter, LC/MS-3), and the concentration of the compounds in each well calculated.
Using the obtained concentration of the compounds in the reaction liquid in each well, the membrane permeability coefficients (Pe) (cm/s) were calculated by the following formula: Cequilibrium=[…] Pe=[−ln(1−CA/Cequilibrium)]/S×(1/VD+1/VA)×t Cequilibrium: Equilibrium concentration of the wells in the Donor side and Acceptor side plates CD: Concentration after five hours of the wells in the Donor side plate (mmol/L) VD: Volume of the standard solution added to the wells in the Donor side plate (0.32 mL) CA: Concentration after five hours of the wells in the Acceptor side plate (mmol/L) VA: Volume of the PBS containing 20% of methanol added to the wells in the Acceptor side plate (0.2 mL) S: Surface of the membrane (0.3 cm^2) t: Standing time 18,000 s (=5 hrs).

SKOV-3 cells = assay: In vitro cytotoxicity of the peptide derivative (I), MTS method, SKOV-3 cells; assay type: cell-based, human; conditions: Homo sapiens, SK-OV-3
Text: as §1

CC[C@H](C)[C@@H]([C@@H](CC(=O)N1CCC[C@H]1[C@H](OC)[C@@H](C)C(=O)N[C@@H](Cc1ccccc1)c1nc(C(=O)NCCNC)cs1)OC)N(C)C(=O)[C@@H](NC(=O)[C@H](C(C)C)N(C)C)C(C)C [Reference Example 14, 2-((S)-1-(((2S,3R)-3-((S)-1-((3R,4S,5S)-4-((S)-2-((S)-2-(dimethylamino)-3-methylbutanamido)-N,3-dimethylbutanamido)-3-methoxy-5-methylheptanoyl)pyrrolidin-2-yl)-3-methoxy-2-methylpropanamido)-2-phenylethyl)-N-(2-(methylamino)ethyl)thiazole-4-carboxamidedihydrochloride, reference compound]
pEC50 (L1210 cells): 7.57
pEC50 (A549 cells): 8.01
Papp at 5 h, 200 μmol/L [1]: 0.004 ×10⁻⁶ cm/s
pEC50 (SKOV-3 cells): < 8.00

CC[C@H](C)[C@@H]([C@@H](CC(=O)N1CCC[C@H]1[C@H](OC)[C@@H](C)C(=O)N[C@@H](Cc1ccccc1)c1nc(C(=O)OCCO)cs1)OC)N(C)C(=O)[C@@H](NC(=O)[C@H](C(C)C)N(C)C)C(C)C [Example 8, 2-hydroxyethyl 2-((S)-1-((2R,3R)-3-((S)-1-((3R,4S,5S)-4-((S)-2-((S)-2-(dimethylamino)-3-methylbutanamido)-N,3-dimethylbutanamido)-3-methoxy-5-methylheptanoyl)pyrrolidin-2-yl)-3-methoxy-2-methylpropanamido)-2-phenylethyl)thiazole-4-carboxylate]
pEC50 (L1210 cells): 8.32
pEC50 (A549 cells): 8.76
Papp at 5 h, 200 μmol/L [1]: 0.04 ×10⁻⁶ cm/s
pEC50 (SKOV-3 cells): 10.05

CC[C@H](C)[C@@H]([C@@H](CC(=O)N1CCC[C@H]1[C@H](OC)[C@@H](C)C(=O)N[C@@H](Cc1ccccc1)c1nc(C(=O)NCCS)cs1)OC)N(C)C(=O)[C@@H](NC(=O)[C@H](C(C)C)N(C)C)C(C)C [Example 1]
pEC50 (L1210 cells): 7.50
pEC50 (A549 cells): 8.71
Papp at 5 h, 200 μmol/L [1]: 1.15 ×10⁻⁶ cm/s
pEC50 (SKOV-3 cells): 9.36

CC[C@H](C)[C@@H]([C@@H](CC(=O)N1CCC[C@H]1[C@H](OC)[C@@H](C)C(=O)N[C@@H](Cc1ccccc1)c1nc(C(=O)OCCS)cs1)OC)N(C)C(=O)[C@@H](NC(=O)[C@H](C(C)C)N(C)C)C(C)C [Example 2, 2-mercaptoethyl 2-((S)-1-((2R,3R)-3-((S)-1-((3R,4S,5S)-4-((S)-2-((S)-2-(dimethylamino)-3-methylbutanamido)-N,3-dimethylbutanamido)-3-methoxy-5-methylheptanoyl)pyrrolidin-2-yl)-3-methoxy-2-methylpropanamido)-2-phenylethyl)thiazole-4-carboxylate]
pEC50 (L1210 cells): 7.85
pEC50 (A549 cells): 8.16
Papp at 5 h, 200 μmol/L [1]: 0.005 ×10⁻⁶ cm/s
pEC50 (SKOV-3 cells): 9.89

CC[C@H](C)[C@@H]([C@@H](CC(=O)N1CCC[C@H]1[C@H](OC)[C@@H](C)C(=O)N[C@@H](Cc1ccccc1)c1nc(C(=O)N(C)CCNC)cs1)OC)N(C)C(=O)[C@@H](NC(=O)[C@H](C(C)C)N(C)C)C(C)C [Example 6, 2-((S)-1-((2R,3R)-3-((S)-1-((3R,4S,5S)-4-((S)-2-((S)-2-(dimethylamino)-3-methylbutanamido)-N,3-dimethylbutanamido)-3-methoxy-5-methylheptanoyl)pyrrolidin-2-yl)-3-methoxy-2-methylpropanamido)-2-phenylethyl)-N-methyl-N-(2-(methylamine)ethyl)thiazole-4-carboxamide dihydrochloride]
pEC50 (L1210 cells): 7.76
pEC50 (A549 cells): 8.71
pEC50 (SKOV-3 cells): 9.66

CC[C@H](C)[C@@H]([C@@H](CC(=O)N1CCC[C@H]1[C@H](OC)[C@@H](C)C(=O)N[C@@H](Cc1ccccc1)c1nc(C(=O)NCCc2ccc(N)cc2)cs1)OC)N(C)C(=O)[C@@H](NC(=O)[C@H](C(C)C)N(C)C)C(C)C [Example 10]
pEC50 (L1210 cells): 8.39
pEC50 (A549 cells): 8.97
Papp at 5 h, 200 μmol/L [1]: 0.3 ×10⁻⁶ cm/s
pEC50 (SKOV-3 cells): 9.57

CC[C@H](C)[C@@H]([C@@H](CC(=O)N1CCC[C@H]1[C@H](OC)[C@@H](C)C(=O)N[C@@H](Cc1ccccc1)c1nc(C(=O)NCCNC(=O)CCS)cs1)OC)N(C)C(=O)[C@@H](NC(=O)[C@H](C(C)C)N(C)C)C(C)C [Reference Example 16, reference compound]
pEC50 (L1210 cells): < 7.30
pEC50 (A549 cells): < 8.00
pEC50 (SKOV-3 cells): < 8.00
